Data reported in patent US5837817A, “Tumor necrosis factor receptor-II-associated protein kinase and methods for its use” (Research Development Foundation, priority 1996, dated 1998).

How the values were obtained:
[1] = test system: p80 receptor phosphorylation, SW480T cells; conditions: pretreatment of SW480T cells; cited from earlier work
[2] = molecular target: T1, purified casein kinase 1 (Rattus norvegicus, UniProt Q06486); experiment: In vitro kinase assay with purified casein kinase 1, p80Δ5 as substrate; assay type: biochemical; conditions: 100 μM inhibitor; 10 units purified casein kinase 1; read-out: inhibition of purified casein kinase 1, measured by phosphorylation of p80Δ5
T1 construct: purchased New England Biolabs, Beverly, Mass
T1 sequence (Q06486 1-317 limits assumed): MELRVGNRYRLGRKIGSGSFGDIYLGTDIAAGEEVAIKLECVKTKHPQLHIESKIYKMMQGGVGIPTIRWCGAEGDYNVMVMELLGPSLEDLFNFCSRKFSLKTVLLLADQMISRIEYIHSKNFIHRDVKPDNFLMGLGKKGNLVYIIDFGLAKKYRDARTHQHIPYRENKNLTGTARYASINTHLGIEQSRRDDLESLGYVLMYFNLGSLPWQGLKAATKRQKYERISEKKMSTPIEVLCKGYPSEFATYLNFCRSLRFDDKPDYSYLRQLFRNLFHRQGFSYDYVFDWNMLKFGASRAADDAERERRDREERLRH
Procedure: (§1) An in vitro kinase assay with 10 units of purified casein kinase 1 (FIG. 11A) or p80TRAK precipitated from U937 cells with p80Δ5 (FIG. 8B) with p80Δ5 as a substrate was performed in the presence of the indicated concentration of casein kinase 1-7 dissolved in DMSO. The asterisk represents a control in which DMSO was added to a final concentration of 1.6%. Reaction mixtures were analyzed by 9% sodium dodecyl sulfate-polyacrylamide gel electrophoresis, and the dried gel was exposed to a PhosphorImager screen. The phosphorylation of p80Δ5 was quantitated by ImageQuant Software (Molecular Dynamics, Sunnyvale, Calif.) .
(§2) Standard kinase assays were carried out for 10 minutes at 37° C. in 50 μl containing 20 mM HEPES, pH 7.4, 10 mM MgCl2, 0.2 mM ATP, 0.2 mM NaF, 0.1 mM sodium orthovanadate, and 10 μCi [γ-^32 P]ATP or as described. Reactions were stopped with 15 μl SDS-sample buffer, boiled for 5 minutes and then subjected to SDS-PAGE. Protein bands were visualized by staining with Coomassie Blue and the dried gels were analyzed by a Phosphorimager (Molecular Dynamics, Sunnyvale, Calif.). Labeled protein bands were quantitated by using ImageQuant Software (Molecular Dynamics, Sunnyvale, Calif.). […]

[3] = test system: p80TRAK; experiment: In vitro kinase assay with p80TRAK precipitated from U937 cells with p80Δ5, p80Δ5 as substrate; assay type: biochemical
Procedure: as §1, §2

inhibition at 100 µM [2] | SMILES | extent of phosphorylation of the p80 receptor [1] | effect on p80TRAK activity as measured by phosphorylation of p80Δ5 (in words) [3] | inhibition of p80TRAK, measured by phosphorylation of p80Δ5 ([3]; 100 μM inhibitor, p80TRAK precipitated from U937 cells)
 | CN[C@@H]1C[C@H]2O[C@@](C)([C@@H]1OC)n1c3ccccc3c3c4c(c5c6ccccc6n2c5c31)C(=O)NC4 [staurosporine] | reduced |  | 
80% | NCCNS(=O)(=O)c1ccc(Cl)c2ccncc12 [casein kinase 1-7] |  | inhibited | 50%
